Data on twelve compounds can be found in patent publication US9802941B2, “Compounds and methods for inhibiting histone demethylases” (Gilead Sciences, Inc., priority 2014, dated 2017).

Format in all cases: biochemical
One experiment deals with T1, KDM4C (JMJD2C) (Homo sapiens, UniProt Q9H3R0).
T1 construct: KDM4C; BRIC, Denmark; 1-349; E. coli; host or cells: E. coli
T1 sequence (Q9H3R0 1-349): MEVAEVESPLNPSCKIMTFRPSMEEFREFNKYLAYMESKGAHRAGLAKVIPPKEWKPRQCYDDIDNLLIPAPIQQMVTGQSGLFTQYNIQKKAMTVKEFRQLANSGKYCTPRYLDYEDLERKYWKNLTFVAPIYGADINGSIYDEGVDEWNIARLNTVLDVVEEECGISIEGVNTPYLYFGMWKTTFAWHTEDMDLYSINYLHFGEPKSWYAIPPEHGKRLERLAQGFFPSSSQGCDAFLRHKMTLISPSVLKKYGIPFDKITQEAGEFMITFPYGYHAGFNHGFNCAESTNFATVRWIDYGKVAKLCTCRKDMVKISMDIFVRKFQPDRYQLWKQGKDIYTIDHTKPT
In words: Histone lysine demethylase AlphaLISA assay, KDM4C. The procedure:
(§1) The compounds of the application, or a pharmaceutically acceptable salt, or solvate, or prodrug thereof, are tested in an in vitro AlphaLISA assay. Enzymes are dissolved in enzyme buffer and incubated before they are added to DMSO solutions of compounds of the application, or a pharmaceutically acceptable salt, or solvate, or prodrug thereof, in enzyme buffer. The reaction mixture is then incubated for an additional period of time before substrate solution is added and then the resulting mixture again incubated. Acceptor beads and suspended Epigenetic Buffer from stock are added and the suspension is again incubated before a suspension of streptavidin donor beads in Epigenetic Buffer is added. After an additional period of incubation, the plates are read.
(§2) The ability of compounds of the application to inhibit the histone lysine demethylase activity in vitro of different enzymes was determined.
(§3) The reaction mixture was incubated for another 10 minutes before 5 μL of substrate solution was added and the resulting mixture was then incubated at room temperature. […] After incubation at room temperature in the dark, the plates were read.
(§4) Enzyme Buffer: 50 mM Hepes (pH 7.4-8.0), 0.003-0.01% Tween-20, 0.1% BSA; 5 μM (NH4)2Fe(SO4)2.

The target of another experiment is T2, KDM2B (FBXL10) (Homo sapiens, UniProt Q8NHM5).
T2 construct: KDM2B; BPS,; 1-650; Bac; purchased BPS Bioscience, US; host or cells: baculovirus system
T2 sequence (Q8NHM5 1-650): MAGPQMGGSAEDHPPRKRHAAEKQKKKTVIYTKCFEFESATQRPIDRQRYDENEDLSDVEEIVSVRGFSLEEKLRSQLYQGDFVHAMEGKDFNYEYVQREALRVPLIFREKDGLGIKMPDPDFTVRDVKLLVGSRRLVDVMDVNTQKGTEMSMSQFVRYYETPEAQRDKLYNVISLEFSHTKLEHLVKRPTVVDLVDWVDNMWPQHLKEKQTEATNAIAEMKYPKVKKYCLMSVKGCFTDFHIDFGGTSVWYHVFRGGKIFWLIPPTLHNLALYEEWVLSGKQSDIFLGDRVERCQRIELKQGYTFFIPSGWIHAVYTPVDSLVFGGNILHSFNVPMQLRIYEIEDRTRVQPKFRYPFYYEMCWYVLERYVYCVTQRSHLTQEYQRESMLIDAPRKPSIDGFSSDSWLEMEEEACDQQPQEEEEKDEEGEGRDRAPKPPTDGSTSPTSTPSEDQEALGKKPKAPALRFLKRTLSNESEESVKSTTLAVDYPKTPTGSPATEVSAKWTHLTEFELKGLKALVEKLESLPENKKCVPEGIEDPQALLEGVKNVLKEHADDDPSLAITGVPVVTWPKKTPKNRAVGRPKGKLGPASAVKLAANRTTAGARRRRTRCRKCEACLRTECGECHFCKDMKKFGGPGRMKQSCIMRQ
In words: Histone lysine demethylase AlphaLISA assay, KDM2B. How it is done: as §1, §2, §3, §4

The target in a further experiment is T3, PHF8 (KDM7) (Homo sapiens, UniProt Q9UPP1).
T3 construct: KDM7 (PHF8); BRIC; 1-1322; Bac
In words: Histone lysine demethylase AlphaLISA assay, PHF8. The procedure: as §1, §2, §3, §4

The next experiment deals with T4, KDM5B (PLU-1) (Homo sapiens, UniProt Q9UGL1).
T4 construct: BRIC; 1-809; E. coli; host or cells: E. coli
T4 sequence (Q9UGL1 1-809): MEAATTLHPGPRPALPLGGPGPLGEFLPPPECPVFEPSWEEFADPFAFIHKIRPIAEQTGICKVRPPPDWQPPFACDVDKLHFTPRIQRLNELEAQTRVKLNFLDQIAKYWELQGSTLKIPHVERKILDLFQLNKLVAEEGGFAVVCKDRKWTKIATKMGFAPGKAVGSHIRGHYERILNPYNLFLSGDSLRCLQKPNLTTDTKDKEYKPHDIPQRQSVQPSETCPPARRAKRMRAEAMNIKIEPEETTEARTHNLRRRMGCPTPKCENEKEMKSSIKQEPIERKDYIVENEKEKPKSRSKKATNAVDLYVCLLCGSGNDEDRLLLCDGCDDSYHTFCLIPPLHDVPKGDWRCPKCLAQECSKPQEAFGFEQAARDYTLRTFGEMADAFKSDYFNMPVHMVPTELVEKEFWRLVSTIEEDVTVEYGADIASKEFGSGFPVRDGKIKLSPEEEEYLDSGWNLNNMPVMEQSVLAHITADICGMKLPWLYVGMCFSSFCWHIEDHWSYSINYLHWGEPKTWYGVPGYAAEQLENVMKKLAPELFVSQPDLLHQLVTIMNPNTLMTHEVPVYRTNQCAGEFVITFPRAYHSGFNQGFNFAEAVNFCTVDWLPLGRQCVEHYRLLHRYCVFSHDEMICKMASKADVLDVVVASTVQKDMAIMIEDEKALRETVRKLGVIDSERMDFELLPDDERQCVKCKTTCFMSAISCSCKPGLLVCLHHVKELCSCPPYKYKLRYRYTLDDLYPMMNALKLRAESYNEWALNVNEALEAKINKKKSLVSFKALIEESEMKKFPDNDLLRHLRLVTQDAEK
In words: Histone lysine demethylase AlphaLISA assay, KDM5B. How it is done:
as §1, §2, §3, §4

Where [1] appears, read: AlphaLISA assay, read-out: HDME Inhibition KDM4C (IC50).
The mark [2] stands for this setting: AlphaLISA, in vitro, read-out: HDME Inhibition KDM4C.
Where [3] appears, read: AlphaLISA, in vitro, read-out: HDME Inhibition KDM2B.
[4] abbreviates: AlphaLISA, in vitro, read-out: HDME Inhibition PHF8.
The mark [5] stands for this setting: AlphaLISA assay, read-out: HDME Inhibition KDM5B (IC50).
The mark [6] stands for this setting: AlphaLISA, in vitro, read-out: HDME Inhibition KDM5B.
Setting [7] is: AlphaLISA assay, read-out: HDME Inhibition PHF8 (IC50).

Where two headings read alike, the source gives them in different places.

T3 sequence (Q9UPP1 37-440 limits assumed): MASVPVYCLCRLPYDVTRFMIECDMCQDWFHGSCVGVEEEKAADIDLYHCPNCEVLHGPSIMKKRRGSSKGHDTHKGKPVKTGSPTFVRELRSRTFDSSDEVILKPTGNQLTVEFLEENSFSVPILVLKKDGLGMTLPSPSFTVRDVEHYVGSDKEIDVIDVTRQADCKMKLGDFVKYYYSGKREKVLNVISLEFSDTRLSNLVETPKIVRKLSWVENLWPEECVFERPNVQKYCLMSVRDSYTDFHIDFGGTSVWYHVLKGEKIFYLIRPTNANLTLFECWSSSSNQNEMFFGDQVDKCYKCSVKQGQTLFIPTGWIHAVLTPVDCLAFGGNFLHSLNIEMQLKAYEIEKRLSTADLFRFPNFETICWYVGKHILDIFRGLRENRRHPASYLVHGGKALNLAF

`Cc1cc(C(=O)O)cc(CNCc2nnc(C3CCC3)n2Cc2ccc(F)cc2)n1` [Compound 45, 2-{[({5-cyclobutyl-4-[(4-fluorophenyl)methyl]-4H-1,2,4-triazol-3-yl}methyl)amino]methyl}-6-methylpyridine-4-carboxylic acid]: the IC50 is more than 10 µM at KDM4C (JMJD2C) (setting [1]); more than 10 µM at KDM4C (JMJD2C) (setting [2]); 0.501 µM on KDM2B (FBXL10) (setting [3]); 0.491 µM at PHF8 (KDM7) (setting [4]); more than 10 µM on KDM5B (PLU-1) (setting [5]); more than 10 µM on KDM5B (PLU-1) (setting [6]).

With `Cc1cc(C(=O)O)cc(CNCc2nnc(CCN(C)C)n2Cc2ccc(F)cc2)n1` [Compound 46, 2-{[({5-[2-(dimethylamino)ethyl]-4-[(4-fluorophenyl)methyl]-4H-1,2,4-triazol-3-yl}methyl)amino]methyl}-6-methylpyridine-4-carboxylic acid], the IC50 at KDM4C (JMJD2C) (setting [1]) is more than 10 µM; at KDM4C (JMJD2C) (setting [2]) it was more than 10 µM; at KDM2B (FBXL10) (setting [3]), 2.27 µM; at PHF8 (KDM7) (setting [4]) it was 2.28 µM; at KDM5B (PLU-1) (setting [5]), more than 10 µM; at KDM5B (PLU-1) (setting [6]) it was more than 10 µM.

For the compound `CC#CCC(c1ccc(F)cc1)n1ccnc1CNCc1cc(C(=O)O)cc(C)n1` (centres unmarked) [Compound 96, 2-{[({1-[1-(4-fluorophenyl)pent-3-yn-1-yl]-1H-imidazol-2-yl}methyl)amino]methyl}-6-methylpyridine-4-carboxylic acid], the IC50 on KDM4C (JMJD2C) (setting [1]) was more than 10 µM; at KDM4C (JMJD2C) (setting [2]), more than 10 µM; on KDM2B (FBXL10) (setting [3]), 0.061 µM; on PHF8 (KDM7) (setting [4]), 1.81 µM; on KDM5B (PLU-1) (setting [5]), more than 10 µM; on KDM5B (PLU-1) (setting [6]), more than 10 µM.

For the compound `CCc1nnc(CNCc2cc(C(=O)O)cc(CO)n2)n1CCCc1ccccc1` [Compound 69, 2-[({[5-ethyl-4-(3-phenylpropyl)-4H-1,2,4-triazol-3-yl]methyl}amino)methyl]-6-(hydroxymethyl)pyridine-4-carboxylic acid], the IC50 at KDM4C (JMJD2C) (setting [1]) was more than 10 µM; on KDM4C (JMJD2C) (setting [2]), more than 10 µM; at KDM2B (FBXL10) (setting [3]) it was 0.027 µM; on PHF8 (KDM7) (setting [4]) it was 0.662 µM; at KDM5B (PLU-1) (setting [5]), more than 10 µM; on KDM5B (PLU-1) (setting [6]) it was more than 10 µM.

As to `Cc1cc(OCc2ccccc2)c(CCNCc2cc(C(=O)O)cc(CO)n2)nn1` [Compound 87, 2-[({2-[4-(benzyloxy)-6-methylpyridazin-3-yl]ethyl}amino)methyl]-6-(hydroxymethyl)pyridine-4-carboxylic acid], the IC50 at KDM4C (JMJD2C) (setting [1]) was more than 10 µM; on KDM4C (JMJD2C) (setting [2]), more than 10 µM; on KDM2B (FBXL10) (setting [3]), 1.7 µM; on PHF8 (KDM7) (setting [4]) it was 2.3 µM; at KDM5B (PLU-1) (setting [5]) it was more than 10 µM; on KDM5B (PLU-1) (setting [6]), more than 10 µM.

For `CCc1nnc(CNCc2cc(C(=O)O)cc(C)n2)n1C/C=C/c1ccccc1` [Compound 68, 2-{[({5-ethyl-4-[(2E)-3-phenylprop-2-en-1-yl]-4H-1,2,4-triazol-3-yl}methyl)amino]methyl}-6-methylpyridine-4-carboxylic acid], the IC50 on KDM4C (JMJD2C) (setting [1]) is more than 10 µM; at KDM4C (JMJD2C) (setting [2]) it was more than 10 µM; on KDM2B (FBXL10) (setting [3]), 1.68 µM; at PHF8 (KDM7) (setting [4]), 1.8 µM; on KDM5B (PLU-1) (setting [5]), more than 10 µM; at KDM5B (PLU-1) (setting [6]), more than 10 µM.

In the case of `COc1ccc(OCCc2ccccc2)c(CNCc2cc(C(=O)O)cc(C)n2)n1` [Compound 104, 2-[({[6-methoxy-3-(2-phenylethoxy)pyridin-2-yl]methyl}amino)methyl]-6-methylpyridine-4-carboxylic acid], the IC50 is 0.145 µM on KDM2B (FBXL10) (setting [3]), 0.4 µM on PHF8 (KDM7) (setting [4]), more than 10 µM at KDM5B (PLU-1) (setting [5]) and more than 10 µM on KDM5B (PLU-1) (setting [6]).

For `COc1ccc(CC(C)C)c(CNCc2cc(C(=O)O)cc(C)n2)n1` [Compound 74, 2-[({[6-methoxy-3-(2-methylpropyl)pyridin-2-yl]methyl}amino)methyl]-6-methylpyridine-4-carboxylic acid], the IC50 at KDM2B (FBXL10) (setting [3]) was 1.86 µM; on PHF8 (KDM7) (setting [4]), 3.81 µM; at KDM5B (PLU-1) (setting [5]) it was more than 10 µM; on KDM5B (PLU-1) (setting [6]) it was more than 10 µM.

As to `Cc1cc(C(=O)O)cc(CNCCc2ncccc2C2=CCCC2)n1` [Compound 59, 2-[({2-[3-(cyclopent-1-en-1-yl)pyridin-2-yl]ethyl}amino)methyl]-6-methylpyridine-4-carboxylic acid], the IC50 is 2.75 µM at KDM2B (FBXL10) (setting [3]), more than 10 µM at PHF8 (KDM7) (setting [7]) and more than 10 µM on PHF8 (KDM7) (setting [4]).

`COC(=O)c1cn(Cc2ccc(F)cc2)c(CNCc2cc(C(=O)O)cc(CO)n2)n1` [Compound 106, 2-{[({1-[(4-fluorophenyl)methyl]-4-(methoxycarbonyl)-1H-imidazol-2-yl}methyl)amino]methyl}-6-(hydroxymethyl)pyridine-4-carboxylic acid]: the IC50 at KDM2B (FBXL10) (setting [3]) is 3.1 µM; on PHF8 (KDM7) (setting [4]), 2.77 µM; at KDM5B (PLU-1) (setting [5]) it was more than 10 µM; on KDM5B (PLU-1) (setting [6]) it was more than 10 µM.

Regarding `Cc1cc(C(=O)O)cc(CNCc2nocc2COc2ccc(F)cc2)n1` [Compound 76, 2-[({[4-(4-fluorophenoxymethyl)-1,2-oxazol-3-yl]methyl}amino)methyl]-6-methylpyridine-4-carboxylic acid], the IC50 at KDM2B (FBXL10) (setting [3]) was 4.73 µM; at PHF8 (KDM7) (setting [7]), more than 10 µM; on PHF8 (KDM7) (setting [4]), more than 10 µM; at KDM5B (PLU-1) (setting [5]), more than 10 µM; at KDM5B (PLU-1) (setting [6]), more than 10 µM.

In the case of `Cc1cc(C(=O)O)cc(CNCc2nnc(C)n2-c2cccc(Cl)c2)n1` [Compound 58, 2-[({[4-(3-chlorophenyl)-5-methyl-4H-1,2,4-triazol-3-yl]methyl}amino)methyl]-6-methylpyridine-4-carboxylic acid], the IC50 at KDM2B (FBXL10) (AlphaLISA assay, read-out: HDME Inhibition KDM2B (IC50)) is more than 10 µM; on KDM2B (FBXL10) (setting [3]), more than 10 µM; on PHF8 (KDM7) (setting [7]) it was more than 10 µM; at PHF8 (KDM7) (setting [4]), more than 10 µM; on KDM5B (PLU-1) (setting [5]), more than 10 µM; at KDM5B (PLU-1) (setting [6]) it was more than 10 µM.
